The subject of data set [1] is 3 P. aeruginosa strains (APAE001, APAE002, APAE006). As to the kind of experiment: Protein binding: fold change in MIC in the presence of 2% HSA and 0.05% AGP, Geomean of 3 strains. The note with it: MIC in the presence of 2% HSA and 0.05% AGP divided by MIC in the absence; Geomean of 3 P. aeruginosa strains (APAE001, APAE002, APAE006). Format: cell-based, Pseudomonas aeruginosa. The essentials:
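MIC against each strain was determined by the standard broth method in cation-adjusted Mueller-Hinton broth with and without 2% HSA plus 0.05% AGP. Fold change is the MIC ratio with/without protein per strain; the value reported is the geometric mean over APAE001, APAE002 and APAE006.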

In data set [2] the test system is bacterial isolates (clinical isolates and ATCC quality control strains). As to the kind of experiment: Minimum Inhibitory Concentrations (MICs) by broth microdilution (CLSI susceptibility testing). The class given is cell-based. The essentials: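 Broth microdilution per CLSI in cation-adjusted Mueller-Hinton broth, 2-fold serial drug dilutions, final inoculum 3×10^5–7×10^5 CFU/mL. Plates incubated 18-24 h at 35 °C in ambient air; MIC is lowest concentration preventing visible growth (OD600 nm<0.05), with levofloxacin and QC strains monitoring performance.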

Where [3] appears, read: Pseudomonas aeruginosa, ATCC27853, read-out: Minimum Inhibitory Concentrations (MICs) APAE001.
Where [4] appears, read: Pseudomonas aeruginosa, read-out: Minimum Inhibitory Concentrations (MICs) APAE002.
Setting [5] is: read-out: Minimum Inhibitory Concentrations (MICs) APAE1096.
[6] abbreviates: APAE1096 is a clinical isolate, broth microdilution, read-out: Minimum Inhibitory Concentrations (MICs) APAE1096.
[7] abbreviates: Pseudomonas aeruginosa, APAE002 is a wildtype lab strain of Pseudomonas aeruginosa known as PAM1020 or PA01, broth microdilution, read-out: Minimum Inhibitory Concentrations (MICs) APAE002.
Setting [8] is: Pseudomonas aeruginosa, ATCC27853, APAE001 is Pseudomonas aeruginosa ATCC27853, broth microdilution, read-out: Minimum Inhibitory Concentrations (MICs) APAE001.

The text below walks through data of US20150175530A1, “ANTIBACTERIAL AGENTS” (priority 2012, published 2015).

Molecules are shown by their SMILES. ≈ marks a conversion by molar mass, not a printed value. Like-named read-outs stand apart in the source and are kept apart here.

Regarding `CC(C)(N)[C@H](NC(=O)c1ccc(C#CC#CC[C@@H](O)CO)cc1)C(=O)NO` [Compound 37, N—((S)-3-amino-1-(hydroxyamino)-3-methyl-1-oxobutan-2-yl)-4-((R)-6,7-dihydroxyhepta-1,3-diyn-1-yl)benzamide], the “Protein Binding PB (Geomean of fold change in MIC)” value in data set [1] was 1.4. The MIC in data set [2] (setting [3]), in data set [2] (setting [4]) and in data set [2] (setting [5]) was 1 to 8 µg/mL (≈ 2.68 to 21.4 µM) each time.
For `CC(C)(N)[C@H](NC(=O)c1ccc(C#CC#CC[C@]2(O)C[C@@H](CO)C2)cc1)C(=O)NO` [Compound 28, N—((S)-3-amino-1-(hydroxyamino)-3-methyl-1-oxobutan-2-yl)-4-(5-((1S,3S)-1-hydroxy-3-(hydroxymethyl)cyclobutyl)penta-1,3-diyn-1-yl)benzamide], the “Protein Binding PB (Geomean of fold change in MIC)” value in data set [1] is recorded as 1.3. Further, the MIC in data set [2] (setting [6]) is more than 16 µg/mL; in data set [2] (setting [7]) it was 1 to 8 µg/mL (≈ 2.42 to 19.3 µM); in data set [2] (setting [8]) it was 1 to 8 µg/mL (≈ 2.42 to 19.3 µM).
With `CC(C)(N)[C@H](NC(=O)c1ccc(C#CC#C[C@@H](O)CO)cc1)C(=O)NO` [Compound 62, N—((S)-3-amino-1-(hydroxyamino)-3-methyl-1-oxobutan-2-yl)-4-((R)-5,6-dihydroxyhexa-1,3-diyn-1-yl)benzamide], the “Protein Binding PB (Geomean of fold change in MIC)” value in data set [1] was determined as 2.0. In addition, the figures for the MIC in data set [2] (setting [6]), in data set [2] (setting [7]) and in data set [2] (setting [8]) were 1 to 8 µg/mL (≈ 2.78 to 22.3 µM), less than 1 µg/mL and less than 1 µg/mL, respectively.
Consider `CC(O)(C#CC#Cc1ccc(C(=O)N[C@H](C(=O)NO)C(C)(C)N)cc1)CO` (stereo partly drawn) [Compound 50, N—((S)-3-amino-1-(hydroxyamino)-3-methyl-1-oxobutan-2-yl)-4-(5,6-dihydroxy-5-methylhexa-1,3-diyn-1-yl)benzamide], for which, in data set [1], the “Protein Binding PB (Geomean of fold change in MIC)” value was determined as 1.6. In addition, the results for the MIC in data set [2] (setting [6]), in data set [2] (setting [7]) and in data set [2] (setting [8]) were 8 to 16 µg/mL (≈ 21.4 to 42.8 µM), 1 to 8 µg/mL (≈ 2.68 to 21.4 µM) and less than 1 µg/mL, respectively.
Turning to `CCNC(C)(C)[C@H](NC(=O)c1ccc(C#CC#CCCO)cc1)C(=O)NO` [Compound 10, (S)—N-(3-(ethylamino)-1-(hydroxyamino)-3-methyl-1-oxobutan-2-yl)-4-(6-hydroxyhexa-1,3-diynyl)benzamide], in data set [1], the “Protein Binding PB (Geomean of fold change in MIC)” value worked out at 2.2. The MIC in data set [2] (setting [3]), in data set [2] (setting [4]) and in data set [2] (setting [5]) was less than 1 µg/mL throughout.
Consider `CC(C)(N)[C@H](NC(=O)c1ccc(C#CC#CC(O)CO)cc1)C(=O)NO` (stereo partly drawn) [Compound 17, N—((S)-3-amino-1-(hydroxyamino)-3-methyl-1-oxobutan-2-yl)-4-(5,6-dihydroxyhexa-1,3-diynyl)benzamide], for which the “Protein Binding PB (Geomean of fold change in MIC)” value in data set [1] is recorded as 1.5. Further, the MIC in data set [2] (setting [3]) lay in the range of 1 to 8 µg/mL (≈ 2.78 to 22.3 µM); in data set [2] (setting [4]) it was 1 to 8 µg/mL (≈ 2.78 to 22.3 µM); in data set [2] (setting [5]) it was 8 to 16 µg/mL (≈ 22.3 to 44.5 µM).
In the case of `CC(C)(N)[C@H](NC(=O)c1ccc(C#C/C=C/C(O)CO)cc1)C(=O)NO` (stereo partly drawn) [Compound 58, N—((S)-3-amino-1-(hydroxyamino)-3-methyl-1-oxobutan-2-yl)-4-((E)-5,6-dihydroxyhex-3-en-1-yn-1-yl)benzamide], in data set [1], the “Protein Binding PB (Geomean of fold change in MIC)” value is recorded as 1.0. Also, the MIC is 8 to 16 µg/mL (≈ 22.1 to 44.3 µM) in data set [2] (setting [6]), 1 to 8 µg/mL (≈ 2.77 to 22.1 µM) in data set [2] (setting [7]) and 1 to 8 µg/mL (≈ 2.77 to 22.1 µM) in data set [2] (setting [8]).
As to `CC(C)(N)[C@H](NC(=O)c1ccc(C#CC#CC(CO)CO)cc1)C(=O)NO` [Compound 18, (S)—N-(3-amino-1-(hydroxyamino)-3-methyl-1-oxobutan-2-yl)-4-(6-hydroxy-5-(hydroxymethyl)hexa-1,3-diynyl)benzamide], the “Protein Binding PB (Geomean of fold change in MIC)” value in data set [1] was determined as 1.6. The MIC lay within 8 to 16 µg/mL (≈ 21.4 to 42.8 µM) in data set [2] (setting [6]), 1 to 8 µg/mL (≈ 2.68 to 21.4 µM) in data set [2] (setting [7]) and 1 to 8 µg/mL (≈ 2.68 to 21.4 µM) in data set [2] (setting [8]).
For `CNC(C)(C)[C@H](NC(=O)c1ccc(C#CC#CCO)cc1)C(=O)NO` [Compound 5, (S)—N-(1-(hydroxyamino)-3-methyl-3-(methylamino)-1-oxobutan-2-yl)-4-(5-hydroxypenta-1,3-diynyl)benzamide], in data set [1], the “Protein Binding PB (Geomean of fold change in MIC)” value is reported as 1.6. Also, the MIC in data set [2] (setting [6]), in data set [2] (setting [7]) and in data set [2] (setting [8]) was less than 1 µg/mL throughout.
Regarding `CNC(C)(C)[C@H](NC(=O)c1ccc(C#CC#CC[C@H](O)CO)cc1)C(=O)NO` [Compound 43, 4-((S)-6,7-dihydroxyhepta-1,3-diyn-1-yl)-N—((S)-1-(hydroxyamino)-3-methyl-3-(methylamino)-1-oxobutan-2-yl)benzamide], the “Protein Binding PB (Geomean of fold change in MIC)” value in data set [1] stood at 1.6. Besides, the MIC in data set [2] (setting [6]) was 1 to 8 µg/mL (≈ 2.58 to 20.6 µM); in data set [2] (setting [7]), less than 1 µg/mL; in data set [2] (setting [8]) it was less than 1 µg/mL.
Take `CNC(C)(C)[C@H](NC(=O)c1ccc(C#CC#CCCO)cc1)C(=O)NO` [Compound 9, (S)—N-(1-(hydroxyamino)-3-methyl-3-(methylamino)-1-oxobutan-2-yl)-4-(6-hydroxyhexa-1,3-diynyl)benzamide]: the “Protein Binding PB (Geomean of fold change in MIC)” value in data set [1] came out at 1.5. Also, the MIC in data set [2] (setting [3]), in data set [2] (setting [4]) and in data set [2] (setting [5]) was less than 1 µg/mL each time.
`CC(C)(N)[C@H](NC(=O)c1ccc(C#CC#C[C@@H]2[C@@H](CO)[C@H]2CO)cc1)C(=O)NO` [Compound 23A, N—((S)-3-amino-1-(hydroxyamino)-3-methyl-1-oxobutan-2-yl)-4-(((1S,2R,3S)-2,3-bis(hydroxymethyl)cyclopropyl)buta-1,3-diynyl)benzamide]: in data set [1], the “Protein Binding PB (Geomean of fold change in MIC)” value is reported as 2.3. The figures for the MIC in data set [2] (setting [6]), in data set [2] (setting [7]) and in data set [2] (setting [8]) were 8 to 16 µg/mL (≈ 20 to 40.1 µM), 1 to 8 µg/mL (≈ 2.5 to 20 µM) and 1 to 8 µg/mL (≈ 2.5 to 20 µM), respectively.
`CC(C)(NCCO)[C@H](NC(=O)c1ccc(C#CC#CCO)cc1)C(=O)NO` [Compound 6, (S)—N-(1-(hydroxyamino)-3-(2-hydroxyethylamino)-3-methyl-1-oxobutan-2-yl)-4-(5-hydroxypenta-1,3-diynyl)benzamide]: the “Protein Binding PB (Geomean of fold change in MIC)” value in data set [1] came to 2.6. Also, the MIC was 1 to 8 µg/mL (≈ 2.68 to 21.4 µM) in data set [2] (setting [6]), less than 1 µg/mL in data set [2] (setting [7]) and less than 1 µg/mL in data set [2] (setting [8]).
With `C[C@@H](N)[C@H](NC(=O)c1ccc(C#CC#CC(O)CO)cc1)C(=O)NO` (stereo partly drawn) [Compound 45, N-((2S,3R)-3-amino-1-(hydroxyamino)-1-oxobutan-2-yl)-4-(5,6-dihydroxyhexa-1,3-diyn-1-yl)benzamide], in data set [1], the “Protein Binding PB (Geomean of fold change in MIC)” value is 2.0. Moreover, the MIC in data set [2] (setting [3]) is 1 to 8 µg/mL (≈ 2.9 to 23.2 µM); in data set [2] (setting [4]), less than 1 µg/mL; in data set [2] (setting [5]), 1 to 8 µg/mL (≈ 2.9 to 23.2 µM).
For the molecule `CNC(C)(C)[C@H](NC(=O)c1ccc(C#CC#CCC(O)CO)cc1)C(=O)NO` (stereo partly drawn) [Compound 22, 4-(6,7-dihydroxyhepta-1,3-diynyl)-N—((S)-1-(hydroxyamino)-3-methyl-3-(methylamino)-1-oxobutan-2-yl)benzamide], in data set [1], the “Protein Binding PB (Geomean of fold change in MIC)” value worked out at 1.6. For the same molecule, the MIC in data set [2] (setting [6]) is 1 to 8 µg/mL (≈ 2.58 to 20.6 µM); in data set [2] (setting [7]), less than 1 µg/mL; in data set [2] (setting [8]) it was less than 1 µg/mL.
